Measurements reported in the NIST ThermoML archive (doi:10.1021/je030101n).
Numbers after ± are expanded uncertainties.

Assay: xn = mol fraction of the nth substance listed
Details: 101.3 kPa, Liquid; for viscosity: Capillary tube (Ostwald / Ubbelohde) method; for mass density: Pycnometric method

Nc1ccccc1 [aniline] + CN(C)C=O
Details | mass density, 298.15 K [kg/m3] | mass density, 303.15 K [kg/m3] | mass density, 308.15 K [kg/m3] | mass density, 313.15 K [kg/m3] | viscosity, 298.15 K [mPa·s] | viscosity, 303.15 K [mPa·s] | viscosity, 308.15 K [mPa·s] | viscosity, 313.15 K [mPa·s]
x2 = 0 | 1017.2 ± 0.6 | 1012.9 ± 0.6 | 1008.6 ± 0.6 | 1004.2 ± 0.6 | 3.69 ± 0.028 | 3.19 ± 0.024 | 2.8 ± 0.021 | 2.42 ± 0.018
x2 = 0.1293 | 1010.3 ± 0.5 | 1006 ± 0.5 | 1001.7 ± 0.5 | 997.3 ± 0.5 | 3.296 ± 0.024 | 2.864 ± 0.021 | 2.521 ± 0.018 | 2.186 ± 0.016
x2 = 0.2582 | 1005.8 ± 0.5 | 1001.5 ± 0.5 | 997.2 ± 0.5 | 992.9 ± 0.5 | 2.908 ± 0.02 | 2.54 ± 0.018 | 2.242 ± 0.016 | 1.952 ± 0.014
x2 = 0.3548 | 1000.5 ± 0.4 | 996.2 ± 0.4 | 991.9 ± 0.4 | 987.6 ± 0.5 | 2.621 ± 0.018 | 2.298 ± 0.015 | 2.034 ± 0.014 | 1.779 ± 0.012
x2 = 0.4642 | 993.9 ± 0.4 | 989.5 ± 0.4 | 985.1 ± 0.4 | 980.7 ± 0.4 | 2.3 ± 0.015 | 2.025 ± 0.013 | 1.8 ± 0.012 | 1.583 ± 0.011
x2 = 0.5537 | 987.6 ± 0.4 | 983.2 ± 0.4 | 978.9 ± 0.4 | 974.5 ± 0.4 | 2.04 ± 0.013 | 1.803 ± 0.012 | 1.611 ± 0.01 | 1.423 ± 0.009
x2 = 0.6614 | 978.8 ± 0.3 | 974.3 ± 0.3 | 969.8 ± 0.4 | 965.3 ± 0.4 | 1.731 ± 0.011 | 1.543 ± 0.01 | 1.387 ± 0.009 | 1.237 ± 0.008
x2 = 0.7558 | 969.2 ± 0.3 | 964.8 ± 0.3 | 960.4 ± 0.3 | 955.9 ± 0.3 | 1.466 ± 0.009 | 1.319 ± 0.008 | 1.194 ± 0.008 | 1.079 ± 0.007
x2 = 0.8302 | 961.4 ± 0.3 | 957 ± 0.3 | 952.6 ± 0.3 | 948.1 ± 0.3 | 1.257 ± 0.008 | 1.145 ± 0.007 | 1.044 ± 0.007 | 0.954 ± 0.006
x2 = 0.9123 | 952.3 ± 0.3 | 947.7 ± 0.3 | 943.1 ± 0.3 | 938.4 ± 0.3 | 1.038 ± 0.007 | 0.955 ± 0.006 | 0.88 ± 0.006 | 0.819 ± 0.006
